Experimental data taken from patent publication EP0908457B1, “3-(1,2-benzisothiazol- and isoxazol-5-Y1)-2,4(1H,3H)-pyrimidinedione or thione and 3-(1,2-benzisothiazol- and isoxazol-5-y1)-4(3H)-pyrimidinone or thione herbicidal agents” (BASF AKTIENGESELLSCHAFT, priority 1997, dated 1999).

Key:
[1] = tested on: Echinochloa oryzoides (Ard.) Fritsch.; experiment: Preemergence weed control under flooded paddy conditions, ECHORC (Watergrass (Calif.)); format: in vivo; settings: flooded paddy, rated three to four weeks after treatment; note: meaning of each grade not given here
Cyperus iria = experiment: Preemergence weed control under flooded paddy conditions, CYPIR (Rice Flatsedge); format: in vivo; settings: flooded paddy, rated three to four weeks after treatment; note: meaning of each grade not given here
[2] = tested on: Cyperus serotinus, Rottb.; experiment: Preemergence weed control under flooded paddy conditions, CYPSE (Flatsedge); format: in vivo; settings: rated three to four weeks after treatment; note: meaning of each grade not given here
[3] = tested on: Monochoria vaginalis, Presl.; experiment: Preemergence weed control under flooded paddy conditions, MOOVA (Monochoria); format: in vivo; settings: flooded paddy, rated three to four weeks after treatment; note: meaning of each grade not given here
Sagittaria pygmaea, L. = experiment: Preemergence weed control under flooded paddy conditions, SAGPY (Arrowhead (Pygmaea)); format: in vivo; settings: flooded paddy, rated three to four weeks after treatment; note: meaning of each grade not given here
[4] = tested on: Oryza sativa, (L.) Tebonnet; experiment: Rice tolerance to post-transplant applications under flooded paddy conditions (Example 187), ORYSAT (Rice, Tebonnet); settings: rated three to four weeks after treatment; for herbicidal effect rating ORYSAT: meaning of each grade not given here
[5] = Rate 0.0320 kg/ha, preemergence
[6] = Rate 0.0620 kg/ha, preemergence
[7] = Rate 0.1250 kg/ha, preemergence
[8] = Rate 0.2500 kg/ha, preemergence
[9] = Rate 0.5000 kg/ha, preemergence
[10] = 0.0313 kg/ha, preemergence weeds
[11] = 0.0625 kg/ha, preemergence weeds
[12] = 0.1250 kg/ha, preemergence weeds
[13] = 0.2500 kg/ha, preemergence weeds

Cc1nsc2cc(F)c(-n3c(=O)cc(C(F)(F)F)n(C)c3=O)cc12 [Example 366, 2,4(1H,3H)-Pyrimidinedione, 3-(6-fluoro-3-methyl-1,2-benzisothiazol-5-yl)-1-methyl-6-(trifluoromethyl)-]
7.0: herbicidal effect rating, SAGPY (Sagittaria pygmaea, L.; [5])
7.5: herbicidal effect rating ORYSAT ([4]; Rate 0.0320 kg/ha)
8.0: herbicidal effect rating, ECHORC [1, 5] | herbicidal effect rating, CYPSE [2, 5] | herbicidal effect rating, CYPSE [2, 6] | herbicidal effect rating, SAGPY (Sagittaria pygmaea, L.; [6])
9.0: herbicidal effect rating, ECHORC [1, 7] | herbicidal effect rating, ECHORC [1, 8] | herbicidal effect rating, ECHORC [1, 9] | herbicidal effect rating, CYPIR (Cyperus iria; [6]) | herbicidal effect rating, CYPIR (Cyperus iria; [7]) | herbicidal effect rating, CYPIR (Cyperus iria; [8]) | herbicidal effect rating, CYPIR (Cyperus iria; [9]) | herbicidal effect rating, CYPSE [2, 7] | herbicidal effect rating, CYPSE [2, 8] | herbicidal effect rating, CYPSE [2, 9] | herbicidal effect rating, MOOVA [3, 5] | herbicidal effect rating, MOOVA [3, 6] | herbicidal effect rating, MOOVA [3, 7] | herbicidal effect rating, MOOVA [3, 8] | herbicidal effect rating, MOOVA [3, 9] | herbicidal effect rating, SAGPY (Sagittaria pygmaea, L.; [7]) | herbicidal effect rating, SAGPY (Sagittaria pygmaea, L.; [8]) | herbicidal effect rating, SAGPY (Sagittaria pygmaea, L.; [9]) | herbicidal effect rating ORYSAT ([4]; Rate 0.0620 kg/ha) | herbicidal effect rating ORYSAT ([4]; Rate 0.1250 kg/ha) | herbicidal effect rating ORYSAT ([4]; Rate 0.2500 kg/ha) | herbicidal effect rating ORYSAT ([4]; Rate 0.5000 kg/ha)
8.5: herbicidal effect rating, ECHORC [1, 6] | herbicidal effect rating, CYPIR (Cyperus iria; [5])

Cn1c(C(F)(F)F)cc(=O)n(-c2ccc3snc(COCc4ccc([N+](=O)[O-])cc4)c3c2)c1=O [Example 589, 2,4(1H,3H)-Pyrimidinedione, 1-methyl-3-{3-{[(p-nitrobenzyl)oxy]methyl}-1,2-benzisothiazol-5-yl}-6-(trifluoromethyl)-]
4.0: herbicidal effect rating, ECHORC [1, 5] | herbicidal effect rating, ECHORC [1, 6] | herbicidal effect rating, ECHORC [1, 7] | herbicidal effect rating, ECHORC [1, 8] | herbicidal effect rating, CYPIR (Cyperus iria; [8])
2.0: herbicidal effect rating, CYPIR (Cyperus iria; [6]) | herbicidal effect rating, SAGPY (Sagittaria pygmaea, L.; [6]) | herbicidal effect rating, SAGPY (Sagittaria pygmaea, L.; [7])
0.0: herbicidal effect rating, CYPIR (Cyperus iria; [5]) | herbicidal effect rating, CYPSE [2, 5] | herbicidal effect rating, CYPSE [2, 6] | herbicidal effect rating, CYPSE [2, 7] | herbicidal effect rating, SAGPY (Sagittaria pygmaea, L.; [5]) | herbicidal effect rating ORYSAT ([4]; Rate 0.0320 kg/ha) | herbicidal effect rating ORYSAT ([4]; Rate 0.0620 kg/ha) | herbicidal effect rating ORYSAT ([4]; Rate 0.1250 kg/ha) | herbicidal effect rating ORYSAT ([4]; Rate 0.2500 kg/ha)
9.0: herbicidal effect rating, MOOVA [3, 8]
7.0: herbicidal effect rating, MOOVA [3, 5]
3.0: herbicidal effect rating, CYPIR (Cyperus iria; [7]) | herbicidal effect rating, SAGPY (Sagittaria pygmaea, L.; [8])
8.0: herbicidal effect rating, MOOVA [3, 6] | herbicidal effect rating, MOOVA [3, 7]

Cc1ccc(OCC(=O)NS(C)(=O)=O)c(-c2nsc3ccc(-n4c(=O)cc(C(F)(F)F)n(C)c4=O)cc23)c1 [Example 121, N-{{{2-{5-[3,6-Dihydro-3-methyl-2,6-dioxo-4-(trifluoromethyl)-1(2H)-pyrimidinyl]-1,2-benzisothiazol-3-yl}-p-tolyl}oxy}acetyl}methanesulfonamide]
2.0: herbicidal effect rating, CYPIR (Cyperus iria; [12]) | herbicidal effect rating, CYPSE [2, 12]
6.0: herbicidal effect rating, ECHORC [1, 10] | herbicidal effect rating, ORYSAT (rice tolerance) ([4]; 0.1250 kg/ha)
7.0: herbicidal effect rating, ECHORC [1, 11]
8.0: herbicidal effect rating, ECHORC [1, 12]
9.0: herbicidal effect rating, ECHORC [1, 13] | herbicidal effect rating, MOOVA [3, 10] | herbicidal effect rating, MOOVA [3, 11] | herbicidal effect rating, MOOVA [3, 12] | herbicidal effect rating, MOOVA [3, 13] | herbicidal effect rating, ORYSAT (rice tolerance) ([4]; 0.2500 kg/ha)
4.0: herbicidal effect rating, CYPIR (Cyperus iria; [13]) | herbicidal effect rating, CYPSE [2, 13] | herbicidal effect rating, ORYSAT (rice tolerance) ([4]; 0.0625 kg/ha)
0.0: herbicidal effect rating, CYPIR (Cyperus iria; [10]) | herbicidal effect rating, CYPIR (Cyperus iria; [11]) | herbicidal effect rating, CYPSE [2, 10] | herbicidal effect rating, CYPSE [2, 11] | herbicidal effect rating, SAGPY (Sagittaria pygmaea, L.; [10]) | herbicidal effect rating, SAGPY (Sagittaria pygmaea, L.; [11]) | herbicidal effect rating, SAGPY (Sagittaria pygmaea, L.; [12]) | herbicidal effect rating, SAGPY (Sagittaria pygmaea, L.; [13])
3.0: herbicidal effect rating, ORYSAT (rice tolerance) ([4]; 0.0313 kg/ha)

CCN(CC)c1nsc2ccc(-n3c(=O)cc(C(F)(F)F)n(C)c3=O)cc12 [Example 118, 3-[3-(Diethylamino)-1,2-benzisothiazol-5-yl]-1-methyl-6-(trifluoromethyl)-2,4(1H,3H)-pyrimidinedione]
0.0: herbicidal effect rating, ECHORC [1, 10] | herbicidal effect rating, ECHORC [1, 11] | herbicidal effect rating, ECHORC [1, 12] | herbicidal effect rating, ECHORC [1, 13] | herbicidal effect rating, CYPIR (Cyperus iria; [10]) | herbicidal effect rating, CYPIR (Cyperus iria; [11]) | herbicidal effect rating, CYPIR (Cyperus iria; [12]) | herbicidal effect rating, CYPIR (Cyperus iria; [13]) | herbicidal effect rating, CYPSE [2, 10] | herbicidal effect rating, CYPSE [2, 11] | herbicidal effect rating, CYPSE [2, 12] | herbicidal effect rating, CYPSE [2, 13] | herbicidal effect rating, MOOVA [3, 10] | herbicidal effect rating, MOOVA [3, 11] | herbicidal effect rating, MOOVA [3, 12] | herbicidal effect rating, MOOVA [3, 13] | herbicidal effect rating, SAGPY (Sagittaria pygmaea, L.; [10]) | herbicidal effect rating, SAGPY (Sagittaria pygmaea, L.; [11]) | herbicidal effect rating, SAGPY (Sagittaria pygmaea, L.; [12]) | herbicidal effect rating, SAGPY (Sagittaria pygmaea, L.; [13]) | herbicidal effect rating, ORYSAT (rice tolerance) ([4]; 0.0313 kg/ha) | herbicidal effect rating, ORYSAT (rice tolerance) ([4]; 0.0625 kg/ha) | herbicidal effect rating, ORYSAT (rice tolerance) ([4]; 0.1250 kg/ha) | herbicidal effect rating, ORYSAT (rice tolerance) ([4]; 0.2500 kg/ha)
